# Earlier results as cited in patent US20240418706A1, “QUANTIFICATION OF CIRCULATING REGENERATIVE AND ENDOTHELIAL PROGENITOR CELLS AS PREDICTORS OF HEALTH STATUS” (priority 2022, published 2024).
# Read-outs that look alike come from different tables or passages of the source.
# B1: G-CSF: Granulocyte colony stimulating factor, used clinically for mobilization of hematopoietic stem cells (protein, UniProt P09919 31-207, looked up)
# Granulocyte …: TPLGPASSLPQSFLLKCLEQVRKIQGDGAALQEKLVSECATYKLCHPEELVLLGHSLGIPWAPLSSCPSQALQLAGCLSQLHSGLFLYQGLLQALEGISPELGPTLDTLQLDVADFATTIWQQMEELGMAPALQPTQGAMPAFASAFQRRAGGVLVASHLQSFLEVSYRVLRHLAQP
# Key:
# circulating EPC [1] = settings: in vivo
# [2] = >17,000 healthy persons without hyperlipidemia but with elevated high-sensitivity C-reactive protein
# circulating EPC [3] = settings: lipid lowering therapy
# [4] = tested on: endothelial responsiveness
# [5] = 6 days of G-CSF at 10 μg/kg
# [6] = 41 patients with large anterior wall AMI
# EPC = settings: in vivo
# [7] = 114 patients, 56 treated and 58 control
molecule,measurement,setting,value
CC(C)c1nc(N(C)S(C)(=O)=O)nc(-c2ccc(F)cc2)c1/C=C/[C@@H](O)C[C@@H](O)CC(=O)O [Crestor],circulating EPC levels,circulating EPC [1],increase circulating EPC levels
same,CRP levels,[2],lowering CRP levels
same,incidence of major cardiovascular incidents,[2],significantly reduced
CC(C)c1c(C(=O)Nc2ccccc2)c(-c2ccccc2)c(-c2ccc(F)cc2)n1CC[C@@H](O)C[C@@H](O)CC(=O)O [atorvastatin],circulating EPC,circulating EPC [3],increase circulating EPC
same,oxidative stress,circulating EPC [3],reduced oxidative stress
"growth hormone: growth hormone, used in ""antiaging medicine""",endothelial responsiveness,[4]; healthy volunteers,improve endothelial responsiveness
same,endothelial responsiveness,[4]; patients with congestive heart failure,improve endothelial responsiveness
B1,myocardial wall at the area of infarct,"[5]; four months after the infarct, sustained over a year, compared to controls",thicker myocardial wall
same,ejection fraction,[5]; in comparison to controls,Statistically significant improvements
same,pathological remodeling,[5]; in comparison to controls,inhibition of pathological remodeling
same,LVEF,[6],improvement in LVEF
same,pathological remodeling,[6],diminished pathological remodeling
same,mobilization of EPC,EPC,stimulates mobilization of EPC
same,"infarct size, left ventricular function, or coronary restenosis",[7],no influence
